{
  "source": "paper PMC11134331",
  "about": "“Cell-active small molecule inhibitors validate the SNM1A DNA repair nuclease as a cancer target” (Chemical Science, 2024)",
  "key": {"[1]": {"test_system": "γH2AX foci in RPE-1 cells", "assay": "microscopic analysis of damage-induced subnuclear foci, RPE-1 cells", "format": "cell-based, human", "description": "To assess the number of nuclear foci following cisplatin/inhibitor treatments, cells were plated in glass bottom dishes (as above) and allowed to attach. Following treatment, cells were fixed with 4% (v/v) formaldehyde in PBS, blocked with immunofluoresence (IF) blocking buffer (5% horse serum, 1% saponin in PBS) for 1 h, then incubated with primary antibodies at the desired concentrations in IF blocking buffer (overnight, 4 °C).\nImages were imported into ImageJ and foci were counted using a macro adjusting for staining levels between experiments. Anti-γH2AX antibodies were a mouse monoclonal (Millipore; JBW301)."}, "SNM1B": {"biological_target": "T1, SNM1B (Homo sapiens, UniProt Q9H816)", "T1 construct": "for the MBL and β-CASP domains of SNM1B (aa 1–335) into baculoviral expression vectors pFB-CT10HF-LIC; made in house; host or cells: Sf9 insect cells (baculovirus)", "T1 sequence (Q9H816 1-335)": "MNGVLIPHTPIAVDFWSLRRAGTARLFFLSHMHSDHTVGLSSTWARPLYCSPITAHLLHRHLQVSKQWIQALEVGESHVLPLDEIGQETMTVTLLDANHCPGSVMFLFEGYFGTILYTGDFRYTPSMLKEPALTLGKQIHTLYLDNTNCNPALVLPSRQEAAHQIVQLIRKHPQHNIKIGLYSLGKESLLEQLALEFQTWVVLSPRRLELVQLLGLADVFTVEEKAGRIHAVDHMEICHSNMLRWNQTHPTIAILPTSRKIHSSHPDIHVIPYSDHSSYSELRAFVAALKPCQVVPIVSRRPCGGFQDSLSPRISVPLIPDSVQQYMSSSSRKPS", "assay": "real-time fluorescence-based nuclease assay, SNM1B", "format": "biochemical", "description": "There is structural similarity between SNM1A, SNM1B, and SNM1C and major mechanistic features are likely conserved between the three nucleases. We therefore tested (13) and other hydroxamic acid analogues for inhibition of SNM1B and SNM1C. Due to differences in catalytic turnover between the three enzymes, different concentrations of SNM1B (1 nM) and SNM1C (2.5 nM) were used compared to that for SNM1A (0.5 nM) in the assays. Note that the substrate utilised for the high-throughput fluorescence based and subsequent SNM1A and SNM1B assays differed slightly for SNM1C reflecting its (primarily) endonucleolytic, rather than exonucleolytic, activity (ESI Fig. 9 ^†).\nFluorescence-based nuclease digestion SNM1A–C assays were performed as described.[30,45] […] Fluorescence was measured using a PHERAstar FSX fluorescent plate reader in fluorescent top read mode using excitation at 495 nm, emission at 525 nm, and cutoff at […]. Fluorescence spectra were measured every 140 s, for 35 min, at 37 °C. The fluorescence intensity of each well was plotted against compound concentration and fitted using a log (inhibitor) response curve using GraphPad Prism software (GraphPad Software, Inc., La Jolla, CA, USA)."}, "SNM1C": {"biological_target": "T2, SNM1C (Homo sapiens, UniProt Q96SD1)", "T2 construct": "for the MBL and β-CASP domains of SNM1C (aa 1–362) into the baculovirus expression vector pBF-6HZB; made in house; host or cells: Sf9 insect cells (baculovirus)", "T2 sequence (Q96SD1 1-362)": "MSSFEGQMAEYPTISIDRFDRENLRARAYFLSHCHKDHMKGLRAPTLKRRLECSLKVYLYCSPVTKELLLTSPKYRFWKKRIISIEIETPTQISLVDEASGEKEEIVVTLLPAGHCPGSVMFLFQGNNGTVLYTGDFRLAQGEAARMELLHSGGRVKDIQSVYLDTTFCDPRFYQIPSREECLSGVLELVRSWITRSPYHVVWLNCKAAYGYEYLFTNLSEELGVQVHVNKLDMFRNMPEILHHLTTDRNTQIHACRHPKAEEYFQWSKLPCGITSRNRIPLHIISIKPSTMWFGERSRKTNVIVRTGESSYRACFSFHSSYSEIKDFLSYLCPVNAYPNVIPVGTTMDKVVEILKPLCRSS", "assay": "gel-based nuclease assay, SNM1C", "format": "biochemical", "settings": "2.5 nM SNM1C", "description": "To validate the inhibition of SNM1A, SNM1B, and SNM1C observed in the fluorescence-based screening assays, we then performed gel-based assays using 3′ terminally-labelled oligonucleotide substrates that enable both quantitative and qualitative (visual) assessment of the pattern of inhibition, for a subset of compounds. Importantly, whereas the fluorescence-based assay measures a single hydrolytic event at the substrate terminus, the gel-based nuclease assay informs on the pattern of digestion of the entire 51-mer substrate DNA over time.\nStandard exonuclease assays were carried out in a 10 μL final volume containing 20 mM HEPES-KOH, pH 7.5, 50 mM KCl, 0.5 mM TCEP, 10 mM MgCl2, 0.05% (v/v) Triton X-100, 5% (v/v) glycerol, and SNM1 proteins as indicated. Inhibitors were dissolved in DMSO and diluted immediately prior to the reaction in the above buffer. Inhibitors were serially diluted two-fold from 100 μM. The DMSO concentration was kept constant at 0.1% (v/v) in the final reaction mixture. Inhibitors were incubated with the indicated SNM1 enzyme for 10 minutes at room temperature; reactions were initiated by addition of 10 nM DNA substrate and incubated at 37 °C for 20 min. Reactions were quenched by addition of 5 μL stop solution (95% formamide, 10 mM EDTA, 0.25% (v/v) xylene cyanol, 0.25% (v/v) bromophenol blue) and heated at 95 °C for 3 min. Reactions were analysed by 20% denaturing polyacrylamide gel electrophoresis solution of 19 : 1 acrylamide:bis-acrylamide, BioRad and 7 M urea (Sigma Aldrich) in 1 × TBE (Tris-borate EDTA) buffer. Electrophoresis was carried out at 525 V for 75 minutes; gels were subsequently fixed for 60 minutes in a 50% (v/v) methanol, 10% (v/v) acetic acid solution, and dried at 80 °C for two hours under vacuum. Dried gels were exposed to a Kodak Phosphor imager screen and scanned using a Typhoon 9500 instrument (GE Healthcare), scanned images were quantified using ImageJ.\nSuppl. Figure 10. […] Products were analysed by 20% denaturing PAGE. […]"}, "[2]": {"test_system": "U2OS (osteosarcoma) cells", "assay": "clonogenic survival assay, U2OS cells", "format": "cell-based, human", "description": "Clonogenic assays were performed in 10 cm tissue culture dishes (for RPE-1 cells, U2OS cells and derived clones). Cells (1000 per dish) were seeded in complete media (10 mL) and allowed to attach overnight, then treated with cisplatin or cisplatin plus inhibitor for the times stated. Following treatments, cells were allowed to grow and form colonies for 10 days. Colonies formed were stained with Coomassie R250 (Sigma) and counted on a COLCount Colony Counter (Oxford Optronix). All experiments represent the mean (±SEM) of at least three biological repeats of duplicate dishes/flasks for each treatment."}},
  "data": [
    {"smiles": "C[C@H](Nc1nc(NCc2ccco2)nc2ccc(Cl)cc12)C(=O)NO", "note": "[compound 19]", "values": [
      {"measurement": "average γH2AX foci count at 24 hours", "setting": "[1]; RPE-1, cisplatin treated with 50 μM 19", "result": "21.2 ± 0.7", "unit": "foci"},
      {"measurement": "increase of average γH2AX foci count following pretreatment", "setting": "[1]; RPE-1, cisplatin treated, 24 hours", "result": 2, "unit": "fold"},
      {"measurement": "IC50", "setting": "SNM1B", "result": 2500, "unit": "nM"},
      {"measurement": "inhibition of SNM1C in gel-based assay", "setting": "SNM1C", "result": "inhibits each of SNM1A–C"},
      {"measurement": "effect on cisplatin cytotoxicity", "setting": "[2]; U2OS wild-type, 50 μM compound 20 hours pre-treatment, 0–15 μM cisplatin", "result": "potentiation of cisplatin cytotoxicity"},
      {"measurement": "cell death as single agent", "setting": "[2]; U2OS, 50 μM compound", "result": "≤ 10", "unit": "%"},
      {"measurement": "cytotoxicity as single agent", "setting": "[2]; U2OS, 100 μM compound", "result": "some cell death"}
    ]}
  ]
}
